Where a SMILES comes first, the peptide text is derived from it. Bridges are numbered along the chain shown (N, C = ends). [ ]: non-standard residue; d: D form. The star is where a group is joined. d(aIle) = CC[C@H](C)[C@@H](N)C(=O)O; d(aThr) = C[C@@H](O)[C@@H](N)C(=O)O; Hexanoyl(5-Me) = CC(C)CCCC(=O)*; Orn = NCCC[C@H](N)C(=O)O; Dhb = C/C=C(\N)C(=O)O
Columns and labels:
Assay type in all cases: cell-based, human
A-549 = test: SRB colorimetric assay of cell growth and viability, A-549; conditions: 48 hours exposure; for GI50: read-out: GI50 A-549; for CC50: read-out: LC50 A-549
Excerpt: (§1) The finality of this assay is to interrupt the growth of a “in vitro” tumor cell culture by means a continued exhibition of the cells to the sample to be testing.
(§2) This form of the assay employs 96 well cell culture microplates of 9 mm diameter (Faircloth, 1988; Mosmann, 1983). Most of the cell lines are obtained from American Type Culture Collection (ATCC) derived from different human cancer types.
(§3) Cells are maintained in RPMI 1640 10% FBS, supplemented with 0.1 g/l penicillin and 0.1 g/l streptomycin sulfate and then incubated at 37° C., 5% CO2 and 98% humidity. For the experiments, cells were harvested from subconfluent cultures using trypsin and resuspended in fresh medium before plating.
(§4) Cells are seeded in 96 well microtiter plates, at 5×10^3 cells per well in aliquots of 195 μL medium, and they are allowed to attach to the plate surface by growing in drug free medium for 18 hours. Afterward, samples are added in aliquots of 5 μL in a ranging from 10 to 10^−8 μg/mL, dissolved in DMSO:EtOH:PBS (0.5:0.5:99). After 48 hours exposure, the antitumor effect are measured by the SRB methodology: cells are fixed by adding 50 μL of cold 50% (wt/vol) trichloroacetic acid (TCA) and incubating for 60 minutes at 4° C. Plates are washed with deionized water and dried. One hundred μL of SRB solution (0.4% wt/vol in 1% acetic acid) is added to each microtiter well and incubated for 10 minutes at room temperature. Unbound SRB is removed by washing with 1% acetic acid. Plates are air dried and bound stain is solubilized with Tris buffer. Optical densities are read on a automated spectrophotometric plate reader at a single wavelength of 490 nm.
(§5) The values for mean+/− SD of data from triplicate wells are calculated. Some parameters for cellular responses can be calculated: GI=growth inhibition, TGI=total growth inhibition (cytostatic effect) and LC=cell killing (cytotoxic effect).

SK-MEL-28 = test: SRB colorimetric assay of cell growth and viability, SK-MEL-28; conditions: 48 hours exposure; for CC50: read-out: LC50 MEL-28
Excerpt: as §1, §2, §3, §4, §5

HT-29 = test: SRB colorimetric assay of cell growth and viability, HT-29; conditions: 48 hours exposure; for GI50: read-out: GI50 HT-29; for CC50: read-out: LC50 HT-29
Excerpt: as §1, §2, §3, §4, §5

LoVo = test: SRB colorimetric assay of cell growth and viability, LoVo; conditions: 48 hours exposure; for CC50: read-out: LC50 LOVO
Excerpt: as §1, §2, §3, §4, §5

LoVo-Dox = test: SRB colorimetric assay of cell growth and viability, LoVo-Dox; conditions: 48 hours exposure; for CC50: read-out: LC50 LOVO-DOX
Excerpt: as §1
A colorimetric type of assay, using sulforhodamine B (SRB) reaction has been adapted for a quantitative measurement of cell growth and viability [following the technique described by Philip Skehan, et al. (1990), New colorimetric cytotoxicity assay for anticancer drug screening, J. Natl. Cancer Inst., 82:1107-1112].
as §2, §3, §4, §5

DU-145 = test: SRB colorimetric assay of cell growth and viability, DU-145; conditions: 48 hours exposure
Excerpt: as §1, §2, §3, §4, §5

IGROV-1 = test: SRB colorimetric assay of cell growth and viability, IGROV-1; conditions: 48 hours exposure
Excerpt: as §1, §2, §3, §4, §5

IGROV-ET = test: SRB colorimetric assay of cell growth and viability, IGROV-ET; conditions: 48 hours exposure; for CC50: read-out: LC50 IGROV-ET
Excerpt: as §1, §2, §3, §4, §5

HeLa = test: SRB colorimetric assay of cell growth and viability, HeLa; conditions: 48 hours exposure; for CC50: read-out: LC50 HELA
Excerpt: as §1, §2, §3, §4, §5

HeLa-APL = test: SRB colorimetric assay of cell growth and viability, HeLa-APL; conditions: 48 hours exposure; for CC50: read-out: LC50 HELA-APL
Excerpt: as §1, §2, §3, §4, §5

K-562 = test: SRB colorimetric assay of cell growth and viability, K-562; conditions: 48 hours exposure; for CC50: read-out: LC50 K-562
Excerpt: as §1, §2, §3, §4, §5

PANC-1 = test: SRB colorimetric assay of cell growth and viability, PANC-1; conditions: 48 hours exposure; for CC50: read-out: LC50 PANC-1
Excerpt: as §1, §2, §3, §4, §5

Compound	TGI A-549 (A-549) [Molar]	GI50 (A-549) [µM]	CC50 (A-549) [µM]	GI50 (SK-MEL-28) [µM]	TGI MEL-28 (SK-MEL-28) [Molar]	CC50 (SK-MEL-28) [µM]	TGI HT-29 (HT-29) [Molar]	GI50 (HT-29) [µM]	CC50 (HT-29) [µM]	GI50 (LoVo) [µM]	TGI LOVO (LoVo) [Molar]	CC50 (LoVo) [µM]	GI50 (LoVo-Dox) [µM]	TGI LOVO-DOX (LoVo-Dox) [Molar]	CC50 (LoVo-Dox) [µM]	GI50 (DU-145) [µM]	LC50 (concentration causing 50% net cell kill) (DU-145) [µM]	TGI DU-145 (DU-145) [Molar]	GI50 (IGROV-1) [µM]	LC50 (concentration causing 50% net cell killing) (IGROV-1) [µM]	further results
C/C=C1\NC(=O)[C@H](Cc2ccccc2)NC(=O)[C@@H](C(C)C)NC(=O)[C@@H]([C@@H](C)CC)NC(=O)[C@H](NC(=O)[C@H](NC(=O)[C@H](CCCN)NC(=O)[C@H]2CCCN2C(=O)[C@H](NC(=O)[C@@H](NC(=O)[C@@H](NC(=O)[C@@H](CCC(=O)O)NC(=O)CCCC(C)C)[C@@H](C)O)C(C)C)C(C)C)[C@@H](C)CC)[C@@H](C)OC(=O)[C@H](C(C)C)NC1=O [Compound 39, [D-Glu^13]-KF]	6.63E−06	4.41	6.63	3.39	6.63E−06	6.63	2.16E−06	1.2	3.87	0.889	1.72E−06	3.34	0.889	1.70E−06	3.26	3.48	6.63	6.63E−06	1.33	4.11	TGI IGROV (IGROV-1): 2.33E−06 Molar; GI50 (IGROV-ET): 1.29 µM; TGI IGROV-ET (IGROV-ET): 2.29E−06 Molar; CC50 (IGROV-ET): 4.09 µM; GI50 (HeLa): 4.18 µM; TGI HELA (HeLa): 6.63E−06 Molar; CC50 (HeLa): 6.63 µM; GI50 (HeLa-APL): 2.75 µM; TGI HELA-APL (HeLa-APL): 6.63E−06 Molar; CC50 (HeLa-APL): 6.63 µM; GI50 (K-562): 1.27 µM; TGI K-562 (K-562): 2.47E−06 Molar; CC50 (K-562): 4.82 µM; GI50 (PANC-1): 4.1 µM; TGI PANC-1 (PANC-1): 6.63E−06 Molar; CC50 (PANC-1): 6.63 µM
C/C=C1\NC(=O)[C@H](Cc2ccccc2)NC(=O)[C@@H](C(C)C)NC(=O)[C@@H]([C@@H](C)CC)NC(=O)[C@H](NC(=O)[C@H](NC(=O)[C@H](CCCN)NC(=O)[C@H]2CCCN2C(=O)[C@H](NC(=O)[C@@H](NC(=O)[C@@H](NC(=O)[C@@H](CCC(N)=O)NC(=O)CCCC(C)C)[C@@H](C)O)C(C)C)C(C)C)[C@@H](C)CC)[C@@H](C)OC(=O)[C@H](C(C)C)NC1=O [Compound 40, [D-Gln^13]-KF]	7.83E−07	0.318	2.45	1.22	2.27E−06	4.2	1.87E−06	0.949	3.69	0.664	1.41E−06	2.98	0.267	8.23E−07	2.23	1.79	5.24	3.06E−06	1.04	3.62	TGI IGROV (IGROV-1): 1.94E−06 Molar; GI50 (IGROV-ET): 1.31 µM; TGI IGROV-ET (IGROV-ET): 2.24E−06 Molar; CC50 (IGROV-ET): 3.79 µM; GI50 (HeLa): 0.642 µM; TGI HELA (HeLa): 1.58E−06 Molar; CC50 (HeLa): 3.86 µM; GI50 (HeLa-APL): 2.28 µM; TGI HELA-APL (HeLa-APL): 5.94E−06 Molar; CC50 (HeLa-APL): 6.64 µM; GI50 (K-562): 1.23 µM; TGI K-562 (K-562): 2.34E−06 Molar; CC50 (K-562): 4.42 µM; GI50 (PANC-1): 0.13 µM; TGI PANC-1 (PANC-1): 3.01E−07 Molar; CC50 (PANC-1): 0.863 µM
C/C=C1\NC(=O)[C@H](Cc2ccccc2)NC(=O)[C@@H](C(C)C)NC(=O)[C@@H]([C@@H](C)CC)NC(=O)[C@H](NC(=O)[C@H](NC(=O)[C@H](CCCN)NC(=O)[C@H]2CCCN2C(=O)[C@H](NC(=O)[C@@H](NC(=O)[C@H](C)NC(=O)CCCC(C)C)C(C)C)C(C)C)[C@@H](C)CC)[C@@H](C)OC(=O)[C@H](C(C)C)NC1=O [Compound 52, [Ala^12, noD-Val^13]-KF] ({Hexanoyl(5-Me)}-AV[dV][dP][Orn][d(aIle)][d(aThr)][d(aIle)][dV]F[Dhb]V; ester 7-C)	7.41E−06	7.41	7.41	7.41	7.41E−06	7.41	7.41E−06	7.41	7.41	7.41	7.41E−06	7.41	7.41	7.41E−06	7.41	7.41	7.41	7.41E−06	7.41	7.41	TGI IGROV (IGROV-1): 7.41E−06 Molar; GI50 (IGROV-ET): 3.67 µM; TGI IGROV-ET (IGROV-ET): 7.41E−06 Molar; CC50 (IGROV-ET): 7.41 µM; GI50 (HeLa): 6.18 µM; TGI HELA (HeLa): 7.41E−06 Molar; CC50 (HeLa): 7.41 µM; GI50 (HeLa-APL): 0.0179 µM; TGI HELA-APL (HeLa-APL): 7.41E−06 Molar; CC50 (HeLa-APL): 7.41 µM; GI50 (K-562): 7.41 µM; TGI K-562 (K-562): 7.41E−06 Molar; CC50 (K-562): 7.41 µM; GI50 (PANC-1): 6.64 µM; TGI PANC-1 (PANC-1): 7.41E−06 Molar; CC50 (PANC-1): 7.41 µM
C/C=C1\NC(=O)[C@H](Cc2ccccc2)NC(=O)[C@@H](C(C)C)NC(=O)[C@@H]([C@@H](C)CC)NC(=O)[C@H](NC(=O)[C@H](NC(=O)[C@H](CCCN)NC(=O)[C@H]2CCCN2C(=O)[C@H](NC(=O)[C@@H](NC(=O)CNC(=O)CCCC(C)C)C(C)C)C(C)C)[C@@H](C)CC)[C@@H](C)OC(=O)[C@H](C(C)C)NC1=O [Compound 53, [Gly^12, noD-Val^13]-KF] ({Hexanoyl(5-Me)}-GV[dV][dP][Orn][d(aIle)][d(aThr)][d(aIle)][dV]F[Dhb]V; ester 7-C)	7.49E−06	7.49	7.49	7.49	7.49E−06	7.49	7.49E−06	7.49	7.49	5.29	7.49E−06	7.49	7.49	7.49E−06	7.49	7.49	7.49	7.49E−06	7.49	7.49	TGI IGROV (IGROV-1): 7.49E−06 Molar; GI50 (IGROV-ET): 3.31 µM; TGI IGROV-ET (IGROV-ET): 7.49E−06 Molar; CC50 (IGROV-ET): 7.49 µM; GI50 (HeLa): 7.49 µM; TGI HELA (HeLa): 7.49E−06 Molar; CC50 (HeLa): 7.49 µM; GI50 (HeLa-APL): 7.49 µM; TGI HELA-APL (HeLa-APL): 7.49E−06 Molar; CC50 (HeLa-APL): 7.49 µM; GI50 (K-562): 7.49 µM; TGI K-562 (K-562): 7.49E−06 Molar; CC50 (K-562): 7.49 µM; GI50 (PANC-1): 4.17 µM; TGI PANC-1 (PANC-1): 7.49E−06 Molar; CC50 (PANC-1): 7.49 µM

— US20070117743A1, “New antitumoral compounds” (priority 2003, published 2007)
